Key:
[1] = system: JLAT clones (A2; 9.2); experiment: HIV-1 reactivation and inhibition of reactivation in JLAT clones (GFP, flow cytometry); type: cell-based, human
Method: Two JLAT clones (A2; 9.2) were incubated for 24 hours with tumor necrosis factor alpha (TNFα), phorbol myristate 13-acetate (PMA), Compound 9 (9, various doses), and all combinations of these three compounds. JLAT cells make GFP when HIV is reactivated from latency.
J-Lat cells (JLAT 9.2, 5×10^5/mL) were cultured in Gibco RPMI-1640 media, supplemented with 10% (vol/vol) FCS and 5% (vol/vol) penicillin streptomycin at 37° C., 5% CO2 under sterile conditions. For HIV-1 reactivation experiments, 10^6 cells/mL were mixed with TPA (10 nM final, unless otherwise indicated) or TNFα (5 ng/mL final) and immediately 150 μL of cell mix was dispensed into 96-well plates. Compound 9 was added to the 96-well plates in serial dilutions. Cells were incubated for 24 h before analysis by flow cytometry.
JLAT (A2) cells were incubated with the following treatments: media (negative control), DMSO (SNX control), 1 ng/mL TNFα, 2 μM PMA, or these agonists+1, 0.1, 0.01, or 0.001 Compound 9 (left to right in the attached figure). 20 h post incubation, the cells were washed, fixed, and run on a flow cytometer. Media, DMSO, TNFα, and PMA were each run in quadruplicate; all other reactions were run in singlet. >10,000 events (cells) were counted for each treatment. Data are expressed as % GFP+cells (negative cells set by gating on media alone control).

[2] = system: Tat-mediated activation of the HIV-LTR promoter; experiment: TAT-mediated transactivation, HIV-LTR-Luc reporter; type: cell-based, HIV-1
Method: SupT1 cells were transfected with a HIV-LTR-Luc construct (LAI), +/−Tat (pcTAT, subtype B), along with a constitutively active renilla-luciferase construct (to normalize for transfection efficiency). Firefly and renilla activity were monitored (sequentially, same sample) 24 hours post transfection. DMSO was used as a negative control; and Compound 9 was added at 1, 0.1, and 0.001 μM. These reactions were done in singlet (pilot). TZM-bl cells are HeLa derived cells that contain CD4, CCR5, and an integrated HIV promoter (LTR) fused to firefly luciferase. Untransfected cells (LTR) or Tat-transfected cells (LTR+TAT) were incubated with Compound 9 at the indicated doses at the time of transfection. DMSO was used as a negative control. Luciferase activity was measured 20 hours post-transfection using a commercially-available luciferase substrate (Promega) and the results are shown in FIG. 8. […] Repeat results are illustrated in Tat-Experiment 2 graph.

[3] = system: Hepatitis B Virus (HBV); experiment: Anti-HBV assay, real-time qPCR of extracellular HBV DNA in HepG2 2.2.15; type: cell-based
Method: The anti-HBV assay employed real-time qPCR (TaqMan) to directly measure extracellular HBV DNA copy number. HepG2-2.2.15 cells were plated in 96-well microtiter plates. Only the interior wells were utilized to reduce “edge effects” observed during cell culture; the exterior wells were filled with complete medium to help minimize sample evaporation. After 16-24 hours the confluent monolayer of HepG2-2.2.15 cells was washed and the medium replaced with complete medium containing various concentrations of a test compound in triplicate. 3TC was used as positive control, while media alone was added to cells as negative control (virus control, VC). Three days later the culture medium was replaced with fresh medium containing the appropriately diluted drug. Six days following the initial administration of the test compound, the cell culture supernatant collected, treated with pronase and then used in a real-time quantitative TaqMan qPCR assay. The PCR-amplified HBV DNA was detected in real-time by monitoring increases in fluorescence signals that result from the exonucleolytic degradation of a quenched fluorescent probe molecule that hybridizes to the amplified HBV DNA. For each PCR amplification, a standard curve was simultaneously generated using dilutions of purified HBV DNA. Antiviral activity was calculated from the reduction in HBV DNA levels (IC50). CellTiter 96® AQueous One Solution Cell Proliferation Assay kit (Promega) was employed to measure cell viability which was used to calculate cytotoxicity (TC50). The therapeutic index (TI) was calculated as TC50/IC50.

[4] = system: single cycle HIV in SupT1 cells
Method: HIV-integration was evaluated in a cell based assay with ALU-PCR read out. Using single cycle virus (Env-deficient, containing Luc, pseudotyped with VSV-g), SupT1 cells were infected for 36 hours. Cells were treated with DMSO, Raltegravir (integrase inhibitor), 500 nM Compound 9, or Nelfinavir (protease inhibitor). It was expected that Raltegravir should affect both Luc and ALU-PCR data and Nelfinavir should not (downstream of both). Cells were split in half-one part for Luc-assays, and one part for ALU-PCR.

[5] = system: VSVg-pseudotyped NL4-3.Luc.E-R- virus; experiment: microbe, parasite or virus in culture; type: cell-based, HIV-1; settings: Human immunodeficiency virus 1, NL43, SUP-T1, read-out: EC50 of inhibition of HIV replication
[6] = system: SIVmac251 virus; experiment: SIV inhibition in NHP PBMC, p27 antigen capture assay; type: cell-based; settings: 0.0005 to 50 μM
Method: Non-human primate (NHP) cells were activated in IL-2 growth medium (GM) containing PHA-P at a concentration of 10 μg/ml for 24 hrs. The next day cells were washed and re-suspended in fresh IL-2 GM. Compound 9 was serially diluted at concentrations ranging from 0.0005 to 50 μM in a 96 well u-bottom plate containing IL-2 GM. Activated cells were then added to the wells of the plate. SIVmac251 virus, diluted 1:25 in IL-2 GM, was subsequently added to the appropriate wells containing the compounds of interest and the cells except for controls. This virus represents the same virus preparation utilized for infection of the animals. The plate was then incubated overnight and, after extensive washing the next day, the plate was then placed back in the incubator at 37° C., 5% CO2.
On day 4-5, of the assay, supernatants were harvested and a SIV p27 antigen capture assay was used to detect SIV p27 in the supernatant. […] The percentage of inhibition in each experiment is reported in FIGS. 3b and 3c for test 1 and 2, respectively.

[7] = Cell viability (CellTiter 96 AQueous One) in HepG2 2.2.15; type: cell-based; settings: human, HepG2-2.2.15 cells, read-out: Cytotoxicity TC50
Method: The anti-HBV assay employed real-time qPCR (TaqMan) to directly measure extracellular HBV DNA copy number. HepG2-2.2.15 cells were plated in 96-well microtiter plates. Only the interior wells were utilized to reduce “edge effects” observed during cell culture; the exterior wells were filled with complete medium to help minimize sample evaporation. After 16-24 hours the confluent monolayer of HepG2-2.2.15 cells was washed and the medium replaced with complete medium containing various concentrations of a test compound in triplicate. 3TC was used as positive control, while media alone was added to cells as negative control (virus control, VC). Three days later the culture medium was replaced with fresh medium containing the appropriately diluted drug. Six days following the initial administration of the test compound, the cell culture supernatant collected, treated with pronase and then used in a real-time quantitative TaqMan qPCR assay. The PCR-amplified HBV DNA was detected in real-time by monitoring increases in fluorescence signals that result from the exonucleolytic degradation of a quenched fluorescent probe molecule that hybridizes to the amplified HBV DNA. […] Antiviral activity was calculated from the reduction in HBV DNA levels (IC50). […] The therapeutic index (TI) was calculated as TC50/IC50.

CC1(C)CC(=O)c2c(C(F)(F)F)nn(-c3ccc(C(N)=O)c(N[C@H]4CC[C@H](O)CC4)c3)c2C1 [Compound 9, 4-(6,6-Dimethyl-4-oxo-3-trifluoromethyl-4,5,6,7-tetrahydro-indazol-1-yl)-2-(trans-4-hydroxy-cyclohexylamino)-benzamide]
Increase in GFP positive cells (HIV reactivation) ([1]; JLAT (A2) model): about 2 fold | Inhibition of TNFα or PMA (phorbol ester) induced HIV-1 reactivation ([1]; JLAT A2 and JLAT 9.2 cells): does not inhibit | Tat-mediated transactivation [2]: inhibit | Activity against hepatitis B virus (in words) [3]: inactive | Selectivity Index TI (TC50/IC50) ([3]; HBV in HepG2 2.2.15): 0.12 | IC50 ([3]; Hepatitis B virus, 144 h, HBV in HepG2 2.2.15, six days, read-out: Antiviral Activity IC50 (reduction in HBV DNA levels)): 600 nM | IC90 ([3]; Hepatitis B virus, HBV in HepG2 2.2.15): > 2000 nM | Integration of HIV-1 viral DNA into host cell [4]: inhibit | Reduction of single cycle HIV ([4]; 500 nM, SupT1 cells infected 36 hours): at least 90% | EC50 [5]: 10 nM | Amount of p27 in the supernatant of the cultures [6]: dose-dependent reduction | CC50 at 6 days [7]: 73 nM

Reference: patent US20160143884A1, “USE OF TETRAHYDROINDAZOLYLBENZAMIDE AND TETRAHYDROINDOLYLBENZAMIDE DERIVATIVES FOR THE TREATMENT OF HUMAN IMMUNODEFICIENCY VIRUS (HIV) AND ACQUIRED IMMUNE DEFICIENCY SYNDROME (AIDS)” (Esanex, Inc., priority 2014, published 2016)
